Assays:
[1] = test system: subjects with Acute Migraines; assay: Study 303 (BHV3000-303) Phase 3 placebo-controlled trial, rimegepant 75 mg ODT, acute treatment of migraine: efficacy and safety; assay type: in vivo, human
Experimental: Clinical Trial—BHV3000-303: Phase 3: Double-Blind, Randomized, Placebo-Controlled, Safety and Efficacy Trial of BHV-3000 (Rimegepant) Orally Discintegrating Tablet (ODT) for the Acute Treatment of Migraine (ClinicalTrials.gov Identifier: NCT03461757) A phase 3 clinical study was conducted with 1812 participants, as follows. […] Pain freedom of rimegepant compared with placebo in the acute treatment of migraine will be measured using the number of evaluable subjects that report no pain at 2 hours post-dose. […] Pain will be measured on a 4 point Likert scale (0=none, 1=mild, 2=moderate, 3=severe) 2. Freedom from the most bothersome symptom (MBS) of rimegepant compared with placebo will be measured using the number of evaluable subjects that report the absence of their MBS at 2 hours post-dose. […] The MBS (nausea, phonophobia or photophobia) will measured using a binary scale (0=absent, 1=present). […] Pain Relief as measured by a 4 point numeric rating scale (None, Mild, Moderate, Severe) 2. […] Sustained Pain Relief as measured by a 4 point numeric rating scale (None, Mild, Moderate, Severe) 4. […] To measure rimegepant compared to placebo on the probability of requiring rescue medication will be assessed using the number of subjects that take rescue medication within […] administration of study medication (BHV3000 or placebo). […]

[2] = Pooled adverse event and LFT safety data, Studies 301, 302 and 303; assay type: in vivo, human; parameters: ALT or AST >10x ULN / ALT or AST >20x ULN: unit not given here; settings: pooled Studies 301, 302 and 303, n = 1,771

For N[C@@H]1c2cccnc2[C@H](OC(=O)N2CCC(n3c(=O)[nH]c4ncccc43)CC2)CC[C@H]1c1cccc(F)c1F [Rimegepant, [(5S,6S,9R)-5-amino-6-(2,3-difluorophenyl)-6,7,8,9-tetrahydro-5H-cyclohepta[b]pyridin-9-yl] 4-(2-oxo-3H-imidazo[4,5-b]pyridin-1-yl)piperidine-1-carboxylate], the “Patients with LFTs >3xULN” value [1] was “one”, the “ALT or AST >3x ULN, n (%)” value [2] was 2 (0.1%) n (%) and the “ALT or AST >10x ULN” value [2] was 0. The “ALT or AST >20x ULN” value [2] was 0, the “ALT or AST >ULN, n (%)” value [2] was 48 (2.7%) n (%) and the “ALT or AST >5x ULN, n (%)” value ([2]; AST elevation, not drug-related per investigator) was 1 (0.06%) ^2 n (%).

From patent US20220168295A1, “RIMEGEPANT FOR CGRP RELATED DISORDERS” (Biohaven Pharmaceutical Ireland DAC, priority 2018, published 2022)
